In patent US8183235B2, “Dihydronaphthalene compound and use thereof” (Tokyo University of Science Educational Foundation …, priority 2007, dated 2012):
Like-named read-outs stand apart in the source and are kept apart here.

Columns and labels:
SF-295 = test: Inhibition of propagation of central nervous system cancer cells (sulforhodamin B); type: cell-based; settings: Homo sapiens, 48 h; SF-295, two days of cultivation
Text: (§1) As a comparison for the inhibition activity, tamoxifen citrate (TAM) was used. In the Table, the concentration units are μM.

SF-539 = test: as above; type: cell-based; settings: Homo sapiens, 48 h; SF-539, two days of cultivation
Text: as §1

SF-268 = test: as above; type: cell-based; settings: Homo sapiens, 48 h; SF-268, two days of cultivation
Text: as §1

SNB-75 = test: as above; type: cell-based; settings: Homo sapiens, 48 h; SNB-75, two days of cultivation
Text: as §1

SNB-78 = test: as above; type: cell-based; settings: Homo sapiens, 48 h; SNB-78, two days of cultivation
Text: as §1

U251 = test: as above; type: cell-based; settings: Homo sapiens, U-251, 48 h; U251, two days of cultivation
Text: as §1

Cathepsin B = test: Cathepsin-like activity inhibition test; type: biochemical
Experimental: Cathepsin-Like Activity Inhibition Test
(§2) 1) To 20S proteasome, naforidaifen B adjusted to a concentration of 10 μM was added, and incubated at 30° C. for 10 min.
2) To the above test system, fluorescence labeled cathepsin including a 20S proteasome segmenting sequence was added, and reacted for 1 hr at 30° C.
(§3) 3) The fluorescent substance (AMC) released by the above reaction was excited with 360 nm light and assayed with 460 nm light.
(§4) 4) A test system to which naforidaifen B was not added was measured in the same way as (1) to (3) above, and the enzyme activity for the case of using naforidaifen B was measured.
(§5) 5) Stepwise diluted solutions containing naforidaifen B were prepared, and after carrying out the same evaluations as in (1) to (4), the 50% inhibition concentration (IC50) was determined.
6) As a positive control of the enzyme activity, the known proteasome inhibitor Clasto-Lactacystin β-Lactone (Lactacystin activator) and MGI32 were evaluated with the steps (1) to (5).

[1] = molecular target: 20S proteasome caspase-like activity (Homo sapiens, UniProt P28072); test: Caspase-like activity inhibition test; type: biochemical
[2] = molecular target: 20S proteasome trypsin-like activity (Homo sapiens, UniProt Q99436); test: Trypsin-like activity inhibition test; type: biochemical
stomach cancer cells = test: Proliferation inhibition, stomach cancer cell panel (summary); type: cell-based; settings: all of the six types of stomach cancer cell lines; read-out: effective concentration
Experimental: as §1
(§6) In the same way as in Example 9, the proliferation inhibition activity of naforidaifens A to G was measured with respect to six types of stomach cancer cells (St-4, MKN1, MKN7, MKN28, MKN45, MKN74). In the Table, the concentration units are μM.

[3] = molecular target: 20S proteasome chymotrypsin-like activity (Homo sapiens, UniProt P28074); test: Chymotrypsin-like activity inhibition test; type: biochemical; settings: for remaining activity at 10 µM: read-out: % Control, Chymotrypsin-like Activity
ovarian cancer cells = test: Proliferation inhibition, ovarian cancer cell panel (summary); type: cell-based; settings: all of the five types of ovarian cancer cell lines; read-out: effective concentration
Experimental: as §1
(§7) In the same way as in Example 9, the proliferation inhibition activity of naforidaifens A to G was measured with respect to five types of ovarian cancer cells (OVCAR-3, OVCAR-4, OVCAR-5, OVCAR-8, AND SK-OV-3). In the Table, the concentration units are μM.

α-chymotrypsin = α-chymotrypsin (Bos taurus, UniProt P00766); test: α-Chymotrypsin-like activity inhibition test; type: biochemical
Experimental: α-Chymotrypsin-Like Activity Inhibition Test
as §2
2) To the above test system, fluorescence labeled α-chymotrypsin including a 20S proteasome segmenting sequence was added, and reacted for 1 hr at 30° C.
as §3, §4, §5
6) As a positive control of the enzyme activity, the well-known proteasome inhibitor Clasto-Lactacystin β-Lactone (Lactacystin activator) and MGI32 were evaluated with the steps (1) to (5).

20S proteasome = 20S proteasome (Homo sapiens, UniProt P28072+P28074+Q99436); test: Proteasome inhibition activity, overall judgement; type: biochemical; settings: for The evaluations (proteasome inhibition activity): overall judgement positive/negative
colon cancer cells = test: Proliferation inhibition, colon cancer cell panel (summary); type: cell-based; settings: all of the five types of colon cancer cell lines; read-out: effective concentration
Experimental: as §1
(§8) In the same way as in Example 9, the proliferation inhibition activity of naforidaifens A to G was measured with respect to five types of colon cancer cells (HCC2998, KM-12, HT-29, HCT-15, and HCT-116). In the Table, the concentration units are μM.

HCT-116 = test: Proliferation inhibition of colon cancer cells; type: cell-based; settings: Homo sapiens
Experimental: as §1, §8

HCC2998 = test: Proliferation inhibition of colon cancer cells; type: cell-based; settings: Homo sapiens, HCC 2998
Experimental: as §1, §8

KM-12 = test: Proliferation inhibition of colon cancer cells; type: cell-based; settings: Homo sapiens, KM12
Experimental: as §1, §8

HT-29 = test: Proliferation inhibition of colon cancer cells; type: cell-based; settings: Homo sapiens
Experimental: as §1, §8

HCT-15 = test: Proliferation inhibition of colon cancer cells; type: cell-based; settings: Homo sapiens
Experimental: as §1, §8

St-4 = test: Proliferation inhibition of stomach cancer cells; type: cell-based; settings: Homo sapiens
Experimental: as §1, §6

MKN1 = test: Proliferation inhibition of stomach cancer cells; type: cell-based; settings: Homo sapiens, MKN-1
Experimental: as §1, §6

MKN28 = test: Proliferation inhibition of stomach cancer cells; type: cell-based; settings: Homo sapiens, MKN-28
Experimental: as §1, §6

MKN74 = test: Proliferation inhibition of stomach cancer cells; type: cell-based; settings: Homo sapiens, MKN-74
Experimental: as §1, §6

MKN7 = test: Proliferation inhibition of stomach cancer cells; type: cell-based; settings: Homo sapiens, MKN-7
Experimental: as §1, §6

MKN45 = test: Proliferation inhibition of stomach cancer cells; type: cell-based; settings: Homo sapiens, MKN-45
Experimental: as §1, §6

SK-OV-3 = test: Proliferation inhibition of ovarian cancer cells; type: cell-based; settings: Homo sapiens
Experimental: as §1, §7

OVCAR-3 = test: Proliferation inhibition of ovarian cancer cells; type: cell-based; settings: Homo sapiens
Experimental: as §1, §7

OVCAR-8 = test: Proliferation inhibition of ovarian cancer cells; type: cell-based; settings: Homo sapiens
Experimental: as §1, §7

OVCAR-5 = test: Proliferation inhibition of ovarian cancer cells; type: cell-based; settings: Homo sapiens
Experimental: as §1, §7

OVCAR-4 = test: Proliferation inhibition of ovarian cancer cells; type: cell-based; settings: Homo sapiens
Experimental: as §1, §7

[4] = system: central nervous system cancer cells; test: Proliferation inhibition, central nervous system cancer cell panel (summary); type: cell-based; settings: in general with respect to various central nervous system cancer cells; read-out: cytotoxic activity (extent of effective concentration)
Text: as §1

Structure (SMILES)	GI50 (SF-295)	GI50 (SF-539)	GI50 (SF-268)	GI50 (SNB-75)	GI50 (SNB-78)	GI50 (U251)	IC50 (stomach cancer cells)	IC50 [3]	IC50 (ovarian cancer cells)	The evaluations (proteasome inhibition activity) (20S proteasome)	GI50 (HCT-116)	GI50 (HCC2998)	GI50 (KM-12)	GI50 (HT-29)	GI50 (HCT-15)	GI50 (St-4)	GI50 (MKN1)	GI50 (MKN28)	GI50 (MKN74)	GI50 (MKN7)	other results
c1ccc(C2=C(c3ccc(OCCN4CCCCCC4)cc3)c3ccc(OCCN4CCCCCC4)cc3CC2)cc1 [Naforidaifen F, 4-[4-(2-hexahydro-1H-azepin-1-yl-ethoxy)phenyl]-7-(2-hexahydro-1H-azepin-1-yl-ethoxy)-3-phenyl-1,2-dihydronaphthalene]	1780 nM	1660 nM	1700 nM	1740 nM	1700 nM	1480 nM	1100 to 1800 nM	4300 nM	1200 to 1900 nM	positive	1230 nM	1070 nM	1590 nM	501 nM	1230 nM	1580 nM	1550 nM	1820 nM	1170 nM	1230 nM	Cathepsin B inhibition (Cathepsin B): none; IC50 [1]: 5100 nM; remaining activity at 10 µM ([1]; read-out: % Control, Caspase-like Activity): 39.1%; IC50 [2]: > 10000 nM; remaining activity at 10 µM ([2]; read-out: % Control, Trypsin-like Activity): 251%; remaining activity at 10 µM [3]: 34.2%; α-chymotrypsin inhibition (α-chymotrypsin): none; Proteasome selectivity (20S proteasome; judgement): present; IC50 (colon cancer cells): 500 to 1500 nM; GI50 (MKN45): 1580 nM; GI50 (SK-OV-3): 1910 nM; GI50 (OVCAR-3): 1410 nM; GI50 (OVCAR-8): 2000 nM; GI50 (OVCAR-5): 1320 nM; GI50 (OVCAR-4): 1780 nM
CN(C)CCCOc1ccc(C2=C(c3ccccc3)CCc3cc(OCCCN(C)C)ccc32)cc1 [Naforidaifen G, 4-[4-(3-dimethylamino-1-yl-propoxy)phenyl]-7-(3-dimethylamino-1-yl-propoxy)-3-phenyl-1,2-dihydronaphthalene]	1780 nM	1480 nM	1580 nM	1620 nM	1780 nM	1480 nM	1100 to 1800 nM	> 10000 nM	1200 to 1900 nM	negative	1100 nM	1290 nM	1660 nM	490 nM	1290 nM	1480 nM	1510 nM	1620 nM	1150 nM	1320 nM	IC50 [4]: 1400 to 1900 nM; remaining activity at 10 µM ([3]; Concentration 10 μM): 105%; GI50 (MKN45): 1480 nM; GI50 (SK-OV-3): 1740 nM; GI50 (OVCAR-3): 1510 nM; GI50 (OVCAR-8): 1860 nM; GI50 (OVCAR-5): 1290 nM; GI50 (OVCAR-4): 1780 nM
